# From patent publication US6274715A, “Tricyclic erythromycin derivatives” (priority 1997, dated 2001)
# Tests used:
# Type in all cases: cell-based
# [1] = test system: STAPHYLOCOCCUS AUREUS ATCC 6538P; experiment: In vitro antibacterial activity, MIC, BHI agar dilution; details: S. aureus ATCC 6538P, 35-37° C., 20 to 24 hours, unit assumed
# [2] = test system: STAPHYLOCOCCUS AUREUS A5177; experiment: as above; details: S. aureus A5177, unit assumed
# [3] = test system: STAPHYLOCOCCUS AUREUS A-5278; experiment: as above; details: S. aureus A-5278, unit assumed
# [4] = test system: STAPHYLOCOCCUS AUREUS CMX 642A; experiment: as above; details: S. aureus CMX 642A, unit assumed
# [5] = test system: STAPHYLOCOCCUS AUREUS NCTC10649M; experiment: as above; details: S. aureus NCTC10649M, unit assumed
# [6] = test system: STAPHYLOCOCCUS AUREUS CMX 553; experiment: as above; details: S. aureus CMX 553, unit assumed
# [7] = test system: STAPHYLOCOCCUS AUREUS 1775; experiment: as above; details: S. aureus 1775, unit assumed
# [8] = test system: STAPHYLOCOCCUS EPIDERMIDIS 3519; details: S. epidermidis 3519; BHI agar; unit assumed
# EN[…] ATCC 8043 = experiment: In vitro antibacterial activity, MIC, BHI agar dilution; details: E. faecium ATCC 8043, unit assumed
# Protocol: (§1) Representative compounds of the present invention were assayed in vitro for antibacterial activity as follows: Twelve petri dishes containing successive aqueous dilutions of the test compound mixed with 10 mL of sterilized Brain Heart Infusion (BHI) agar (Difco 0418-01-5) were prepared. Each plate was inoculated with 1:100 (or 1:10 for slow-growing strains, such as Micrococcus and Streptococcus) dilutions of up to 32 different microorganisms, using a Steers replicator block. The inoculated plates were incubated at 35-37° C. for 20 to 24 hours. In addition, a control plate, using BHI agar containing no test compound, was prepared and incubated at the beginning and end of each test.
# (§2) An additional plate containing a compound having known susceptibility patterns for the organisms being tested and belonging to the same antibiotic class as the test compound was also prepared and incubated as a further control, as well as to provide test-to-test comparability. Erythromycin A was used for this purpose.
# (§3) After incubation, each plate was visually inspected. The minimum inhibitory concentration (MIC) was defmed as the lowest concentration of drug yielding no growth, a slight haze, or sparsely isolated colonies on the inoculum spot as compared to the growth control.
# M[…] ATCC 4698 = experiment: as above; details: M. luteus ATCC 4698, unit assumed
# Protocol: as §1, §2, §3
# M[…] ATCC 9341 = experiment: as above; details: M. luteus ATCC 9341, unit assumed
# Protocol: as §1, §2, §3
# STR[…] 508 = experiment: as above; details: S. agalactiae CMX 508, unit assumed
# Protocol: as §1, §2, §3
# [9] = test system: STREPTOCOCCUS BOVIS A-5169; experiment: as above; details: S. bovis A-5169, unit assumed
# [10] = test system: STREPTOCOCCUS PYOGENES EES61; experiment: as above; details: S. pyogenes EES61, unit assumed
# [11] = test system: STREPTOCOCCUS PYOGENES 930; experiment: as above; details: S. pyogenes 930, unit assumed
# ESCHERICHIA COLI JUHL = details: E. coli JUHL; BHI agar; unit assumed
# ESCHERICHIA COLI DC-2 = experiment: In vitro antibacterial activity, MIC, BHI agar dilution; details: E. coli DC-2, unit assumed
# ESCHERICHIA COLI H560 = experiment: as above; details: E. coli H560, unit assumed
# ESCHERICHIA COLI KNK 437 = details: E. coli KNK 437; BHI agar; unit assumed
# [12] = test system: ENTEROBACTER AEROGENES ATCC 13048; experiment: In vitro antibacterial activity, MIC, BHI agar dilution; details: E. aerogenes ATCC 13048, unit assumed
# [13] = test system: KLEBSIELLA PNEUMONIAE ATCC 8045; experiment: as above; details: K. pneumoniae ATCC 8045, unit assumed
# [14] = test system: PROVIDENCIA STUARTII CMX 640; details: P. stuartii CMX 640; BHI agar; unit assumed
# [15] = test system: PSEUDOMONAS AERUGINOSA BMH10; experiment: In vitro antibacterial activity, MIC, BHI agar dilution; details: P. aeruginosa BMH10, unit assumed
# [16] = test system: PSEUDOMONAS AERUGINOSA 5007; experiment: as above; details: P. aeruginosa 5007, unit assumed
# [17] = test system: PSEUDOMONAS AERUGINOSA K799/WT; experiment: as above; details: P. aeruginosa K799/WT, unit assumed
# [18] = test system: PSEUDOMONAS AERUGINOSA K799/61; experiment: as above; details: P. aeruginosa K799/61, unit assumed
# PSEUDOMONAS CEPACIA 296I = experiment: as above; details: P. cepacia 296I, unit assumed
# [19] = test system: PSEUDOMONAS AERUGINOSA DPHD-5263; experiment: as above; details: P. aeruginosa DPHD-5263, unit assumed
# [20] = test system: PSEUDOMONAS AERUGINOSA DPHD-2862; experiment: as above; details: P. aeruginosa DPHD-2862, unit assumed
# CANDIDA ALBICANS CCH 442 = experiment: as above; details: C. albicans CCH 442, unit assumed
# [21] = test system: MYCOBACTERIUM SMEGMATIS ATCC 114; experiment: as above; details: M. smegmatis ATCC 114, unit assumed
# ESCHERICHIA COLI SS = experiment: as above; details: E. coli SS, unit assumed
Structure (SMILES),MIC [1],MIC [2],MIC [3],MIC [4],MIC [5],MIC [6],MIC [7],MIC [8],MIC (EN[…] ATCC 8043),MIC (M[…] ATCC 4698),MIC (M[…] ATCC 9341),MIC (STR[…] 508),MIC [9],MIC [10],MIC [11],MIC (ESCHERICHIA COLI JUHL),MIC (ESCHERICHIA COLI DC-2),MIC (ESCHERICHIA COLI H560),MIC (ESCHERICHIA COLI KNK 437),MIC [12],further results
CC[C@H]1OC(=O)[C@H](C)C(=O)[C@H](C)[C@@H](O[C@@H]2O[C@H](C)C[C@H](N(C)C)[C@H]2O)[C@](C)(OC)C[C@@H](C)C2=N[C@H](Cc3ccccc3)CN3C(=O)O[C@@]1(C)[C@H]3[C@H]2C [Example 3],0.39 µg/mL,0.39 µg/mL,> 100 µg/mL,0.39 µg/mL,0.39 µg/mL,0.39 µg/mL,> 100 µg/mL,0.39 µg/mL,0.05 µg/mL,0.39 µg/mL,0.1 µg/mL,0.01 µg/mL,0.02 µg/mL,0.01 µg/mL,100 µg/mL,> 100 µg/mL,> 100 µg/mL,> 100 µg/mL,> 100 µg/mL,> 100 µg/mL,MIC [13]: > 100 µg/mL; MIC [14]: > 100 µg/mL; MIC [15]: > 100 µg/mL; MIC [16]: > 100 µg/mL; MIC [17]: > 100 µg/mL; MIC [18]: 3.1 µg/mL; MIC (PSEUDOMONAS CEPACIA 296I): > 100 µg/mL; MIC [19]: > 100 µg/mL; MIC [20]: > 100 µg/mL; MIC (CANDIDA ALBICANS CCH 442): > 100 µg/mL; MIC [21]: > 100 µg/mL
CC[C@H]1OC(=O)[C@H](C)C(=O)[C@H](C)[C@@H](O[C@@H]2O[C@H](C)C[C@H](N(C)C)[C@H]2O)[C@](C)(OC)C[C@@H](C)C2=N[C@H](COCc3ccncc3)CN3C(=O)O[C@@]1(C)[C@H]3[C@H]2C [Example 77],0.39 µg/mL,0.2 µg/mL,> 100 µg/mL,0.39 µg/mL,0.39 µg/mL,0.39 µg/mL,> 100 µg/mL,0.39 µg/mL,0.05 µg/mL,0.39 µg/mL,0.05 µg/mL,0.01 µg/mL,≤ 0.005 µg/mL,< 0.005 µg/mL,> 100 µg/mL,> 100 µg/mL,100 µg/mL,50 µg/mL,> 100 µg/mL,> 100 µg/mL,MIC (ESCHERICHIA COLI SS): 0.39 µg/mL; MIC [13]: > 100 µg/mL; MIC [14]: > 100 µg/mL; MIC [15]: > 100 µg/mL; MIC [16]: > 100 µg/mL; MIC [17]: 100 µg/mL; MIC [18]: 1.56 µg/mL; MIC (PSEUDOMONAS CEPACIA 296I): > 100 µg/mL; MIC [19]: > 100 µg/mL; MIC [20]: > 100 µg/mL; MIC (CANDIDA ALBICANS CCH 442): > 100 µg/mL; MIC [21]: 0.78 µg/mL
